The record followed here is patent publication US20250019385A1, “SPIROCYCLIC ANNULATED 2-AMINO-3-CYANO THIOPHENES AND DERIVATIVES FOR THE TREATMENT OF CANCER” (Boehringer Ingelheim International GmbH, priority 2023, published 2025).

For one data set, the system named is AsPC-1 cells. Briefly: AsPC-1 CTG proliferation assay (120 h) (pancreatic cancer, G12D). To be noted: Homo sapiens, ASPC1. The data set is classed as cell-based. The procedure, abridged: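 AsPC-1 cells plated overnight, then exposed to logarithmic compound dose series (duplicates) for 120 h at 37° C. Viability by CellTiter-Glo luminescence as percent of DMSO controls, with a T0 reading at compound addition; IC50 from four-parameter non-linear regression.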

A short description of data set [1]: Plasma protein binding assay (PPB), equilibrium dialysis. The class given is in vitro ADME. As to conditions: bovine, 10% FCS in PBS, read-out: PPB 10% FCS (% fu). In a few lines: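 Compound at 1-10 μmol/L in 10% FCS in PBS was dialysed against PBS (with or without dextran) across a 5-10 kg/mol cut-off membrane for 3-5 h at 37° C. Both chambers were protein-precipitated and compound was quantified by LC-MS. The unbound fraction was calculated from the serum-side and buffer-side concentrations.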
For orientation: In equilibrium dialysis free small molecules cross a membrane that holds back macromolecules.

Data set [2] deals with KRAS (G12C)::SOS1 protein-protein interaction (Homo sapiens (Human), UniProt P01116, C118S/C51S/C80L/G12C). Briefly: KRAS::SOS1 AlphaScreen binding assay (KRAS G12C). As to conditions: GDP. In a few lines:
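Biotinylated KRAS G12C 1-169 (C51S/C80L/C118S, 7.5 nM) and GST-SOS1 564-1049 (5 nM) with 10 μM GDP in PBS, 0.1% BSA, 0.05% Tween 20 were incubated 30 min with compounds (top 100 μM, eleven fivefold dilutions). AlphaScreen beads were then added for 60 min at room temperature in the dark. IC50 came from a 4-parameter logistic fit.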
Background: Alpha assays give light when donor and acceptor beads are brought close together.

The subject of another data set is MKN1 cells. Briefly: MKN1 CTG proliferation assay (120 h) (gastric cancer, wt amplified). The data set is classed as cell-based. To be noted: Homo sapiens, MKN-1. In a few lines:
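Cells were seeded at 200 per well in RPMI-1640 with 10% FCS, grown overnight, then exposed to logarithmic compound dilutions in duplicate for 120 h. Viability was read by CellTiter-Glo luminescence as percent of DMSO controls, with untreated T0 cells measured at dosing. IC50 came from four-parameter non-linear regression.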

Chain of KRAS (G12C)::SOS1 protein-protein interaction (P01116 other isoform, or with tags, fused parts or gaps G12C/C51S/C80L/C118S): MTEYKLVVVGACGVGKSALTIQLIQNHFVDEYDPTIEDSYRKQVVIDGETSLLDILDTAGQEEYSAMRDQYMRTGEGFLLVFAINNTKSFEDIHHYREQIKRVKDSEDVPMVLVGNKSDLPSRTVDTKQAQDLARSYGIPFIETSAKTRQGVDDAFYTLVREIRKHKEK

Broadly, the IC50 is the concentration at which inhibition is half-maximal. The low end stands for higher potency, the high end for lower potency. Turning to `CCn1c(=O)n([C@@H]2CCCOC2)c2nc(-c3onc4c3CCC[C@@]43CCCc4sc(N)c(C#N)c43)nc(OCC34CCCN3CCC4)c21` [I-34], the IC50 in the data set on AsPC-1 cells amounted to 5070 nM; in data set [2], 6 nM; with MKN1 cells it was 3400 nM. In addition, the fraction unbound in data set [1] came to 0.07.
On to `CCn1c(=O)n([C@@H]2CCCOC2)c2nc(-c3onc4c3CCC[C@@]43CCCc4sc(N)c(C#N)c43)nc(OCC3(CN4CCCC4)CC3)c21` [I-35], for which the IC50 with AsPC-1 cells was determined as 4250 nM; in data set [2], 2 nM; with MKN1 cells, 978 nM. Further, the fraction unbound in data set [1] amounted to 0.07.
For `CCn1c(=O)n([C@@H]2CCCOC2)c2nc(-c3onc4c3CCC[C@@]43CCCc4sc(N)c(C#N)c43)nc(O[C@@H](C)C34CCCN3CCC4)c21` [I-36], in that order: 1100 nM, 2 nM, 239 nM and 0.06.
For `C[C@H](Oc1nc(-c2onc3c2CCC[C@@]32CCCc3sc(N)c(C#N)c32)nc2c1N(C)C(=O)CN2[C@@H]1CCOC1)[C@@H]1CCCN1C` [I-37], in that order: 4120 nM, 7 nM, 319 nM and 0.13.
In the case of `C[C@H](Oc1nc(-c2onc3c2CCC[C@@]32CCCc3sc(N)c(C#N)c32)nc2c1ncn2[C@@H]1CCOC1)[C@@H]1CCCN1C` [I-38], the IC50 in the data set with AsPC-1 cells was 267 nM; in data set [2], 2 nM; in the data set with MKN1 cells, 32 nM. Further, the fraction unbound in data set [1] was determined as 0.34.
For `Cc1nc2c(O[C@@H](C)[C@@H]3CCCN3C)nc(-c3onc4c3CCC[C@@]43CCCc4sc(N)c(C#N)c43)nc2n1[C@@H]1CCOC1` [I-39], in that order: 353 nM, 2 nM, 29 nM and 0.24.
For the compound `Cc1cc2c(O[C@@H](C)[C@@H]3CCCN3C)nc(-c3onc4c3CCC[C@@]43CCCc4sc(N)c(C#N)c43)nc2n1[C@@H]1CCOC1` [I-40], the IC50 stood at 500 nM with AsPC-1 cells, 2 nM in data set [2] and 217 nM in the data set with MKN1 cells. The fraction unbound in data set [1] turned out to be 0.09.
For `Cc1cn([C@@H]2CCOC2)c2nc(-c3onc4c3CCC[C@@]43CCCc4sc(N)c(C#N)c43)nc(O[C@@H](C)[C@@H]3CCCN3C)c12` [I-41], in that order: 980 nM, 4 nM, 696 nM and 0.35.
The matching figures for `Cc1nn([C@@H]2CCOC2)c2nc(-c3onc4c3CCC[C@@]43CCCc4sc(N)c(C#N)c43)nc(O[C@@H](C)[C@@H]3CCCN3C)c12` [I-42]: 1180 nM, 2 nM, 81 nM and 0.11.
For `C[C@H](Oc1nc(-c2onc3c2CCC[C@@]32CCCc3sc(N)c(C#N)c32)nc2c1cnn2[C@@H]1CCOC1)[C@@H]1CCCN1C` [I-43], in that order: 1390 nM, 2 nM, 155 nM and 0.11.
In the case of `C[C@@H]1COC[C@H](n2c(=O)n(C)c3c(O[C@@H](C)[C@@H]4CCCN4C)nc(-c4onc5c4CCC[C@@]54CCCc5sc(N)c(C#N)c54)nc32)C1` [I-44], the IC50 is 271 nM in the data set with AsPC-1 cells, 2 nM in data set [2] and 10 nM in the data set with MKN1 cells. In data set [1], the fraction unbound was found to be 0.1.
The matching figures for `C[C@H](Oc1nc(-c2onc3c2CCC[C@@]32CCCc3sc(N)c(C#N)c32)nc2c1COC[C@]21CCOC1)[C@@H]1CCCN1C` [I-54]: 76 nM, 2 nM, 7 nM and 0.34.
With `CO[C@H]1CCN(C)[C@@H]1[C@H](C)Oc1nc(-c2noc3c2CCC[C@@]32CCCc3sc(N)c(C#N)c32)nc2c1n(C)c(=O)n2[C@@H]1CCOC1` [II-1], the concentration for half-maximal inhibition (IC50) is 323 nM with AsPC-1 cells, 1 nM in data set [2] and 6 nM in the data set on MKN1 cells. In addition, in data set [1], the fraction unbound is 0.09.
The matching figures for `C[C@H](Oc1nc(-c2noc3c2CCC[C@@]32CCCc3sc(N)c(C#N)c32)nc2c1n(C)c(=O)n2[C@@H]1CCOC1)[C@@H]1CCCN1C` [II-2]: 338 nM, 1 nM, 4 nM and 0.19.
The matching figures for `CO[C@H]1CCN(C)[C@@H]1[C@H](C)Oc1nc(-c2noc3c2CCC[C@@]32CCCc3sc(N)c(C#N)c32)nc2c1n(C)c(=O)n2[C@@H]1CCCOC1` [II-3]: 236 nM, 2 nM, 14 nM and 0.03.
For `C[C@H](Oc1nc(-c2noc3c2CCC[C@@]32CCCc3sc(N)c(C#N)c32)nc2c1cnn2[C@@H]1CCOC1)[C@@H]1CCCN1C` [II-4], in that order: 300 nM, 2 nM, 63 nM and 0.1.
Regarding `C[C@H](Oc1nc(-c2noc3c2CCC[C@@]32CCCc3sc(N)c(C#N)c32)nc2c1CN(c1ncccn1)[C@]21CCOC1)[C@@H]1CCCN1C` [II-7a], the IC50 in the data set with AsPC-1 cells amounted to 307 nM; in data set [2], 2 nM; in the data set with MKN1 cells it was 41 nM. Also, in data set [1], the fraction unbound is 0.02.
The matching figures for `C[C@H](Oc1nc(-c2noc3c2CCC[C@@]32CCCc3sc(N)c(C#N)c32)nc2c1CN(c1ncccn1)[C@@]21CCOC1)[C@@H]1CCCN1C` [II-7b]: 629 nM, 3 nM, 635 nM and 0.05.
For the compound `C[C@H](Oc1nc(-c2noc3c2CCC[C@@]32CCCc3sc(N)c(C#N)c32)nc2c1COC[C@]21CCOC1)[C@@H]1CCCN1C` [II-8], the values for the IC50 (in the data set with AsPC-1 cells; in data set [2]; in the data set on MKN1 cells) were 62 nM, 1 nM and 3 nM, respectively. In addition, the fraction unbound in data set [1] was 0.13.
`C[C@H](Oc1nc(-c2noc3c2CCC[C@@]32CCCc3sc(N)c(C#N)c32)nc2c1COC[C@@]21CCOC1)[C@@H]1CCCN1C` [II-9a]: the IC50 in the data set with AsPC-1 cells turned out to be 1070 nM; in data set [2], 2 nM; in the data set with MKN1 cells, 209 nM. In addition, in data set [1], the fraction unbound is 0.07.
As to `C[C@H](Oc1nc(-c2noc3c2CCC[C@@]32CCCc3sc(N)c(C#N)c32)nc2c1CCO[C@]21CCOC1)[C@@H]1CCCN1C` [II-9b], the IC50 came to 414 nM in the data set with AsPC-1 cells, 1 nM in data set [2] and 19 nM in the data set on MKN1 cells. The fraction unbound in data set [1] worked out at 0.09.
For `C[C@H](Oc1nc(-c2noc3c2CCC[C@@]32CCCc3sc(N)c(C#N)c32)nc2c1CCCO[C@]21CCOC1)[C@@H]1CCCN1C` [II-10], in that order: 264 nM, 1 nM, 10 nM and 0.28.
The matching figures for `CO[C@@H]1C[C@@H]([C@H](C)Oc2nc(-c3noc4c3CCC[C@@]43CCCc4sc(N)c(C#N)c43)nc3c2COC[C@]32CCOC2)N(C)C1` [II-11]: 81 nM, 2 nM, 6 nM and 0.09.
The matching figures for `C[C@H](Oc1nc(-c2noc3c2CCC[C@@]32CCCc3sc(N)c(C#N)c32)nc2c1CNC[C@]21CCOC1)[C@@H]1CCCN1C` [II-15]: 179 nM, 2 nM, 3 nM and 0.3.
